These results are taken from patent US9481648B2, “Kinase inhibitors” (Respivert Limited, priority 2013, dated 2016).

The target in one assay is GSK 3α (Homo sapiens (Human), UniProt P49840). The assay can be described thus: GSK 3α enzyme inhibition (FRET, Z-LYTE; Method 2). The assay is classed as biochemical. Conditions: read-out: IC50 Values for Enzyme Inhibition GSK3α. Put shortly:
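Phosphorylation was taken from the donor (coumarin) to acceptor (fluorescein) emission ratio after 1 h protease development, which cleaves only unphosphorylated peptide. Before that, peptide (8 μM stock) plus ATP (40 μM stock) reacted 1 h. This followed a 105 min RT preincubation of GSK3-α with compound stocks of 10–0.01 μg/mL.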

Another assay addresses c-Src (Homo sapiens (Human), UniProt P12931). The assay can be described thus: c-Src enzyme inhibition (FRET, Z-LYTE). The assay is classed as biochemical. On the procedure:
(§1) The enzyme inhibitory activities of compounds disclosed herein are determined by FRET using synthetic peptides labelled with both donor and acceptor fluorophores (Z-LYTE, Invitrogen Ltd., Paisley, UK).
(§2) The relevant enzyme (3000 ng/mL or 2000 ng/mL respectively, 2.5 μL) is incubated with the test compound (either 1 μg/mL, 0.1 μg/mL, 0.01 μg/mL, or 0.001 μg/mL, 2.5 μL each) for 2 hr at RT. The FRET peptides (8 μM, 2.5 μL), and appropriate ATP solutions (2.5 μL, 800 μM for c-Src, and 60 μM ATP for Syk) are then added to the enzymes/compound mixtures and the mixture incubated for 1 hr. Development reagent (protease, 5 μL) is added for 1 hr prior to detection in a fluorescence microplate reader (Varioskan® Flash, ThermoFisher Scientific).
(§3) In all cases, the site-specific protease cleaves non-phosphorylated peptide only and eliminates the FRET signal. Phosphorylation levels of each reaction are calculated using the ratio of coumarin emission (donor) over fluorescein emission (acceptor), for which high ratios indicate high phosphorylation and low ratios indicate low phosphorylation levels.

The next assay deals with p38 MAPKα (MAPK14) (Homo sapiens (Human), UniProt Q16539). The assay can be described thus: p38 MAPKα enzyme inhibition (FRET, Z-LYTE; Method 2). The assay is classed as biochemical. How it is done: as §1
The inhibitory activities of test compounds against the p38 MAPKα isoform (MAPK14: Invitrogen) are evaluated indirectly by determining the level of activation\phosphorylation of the down-stream molecule, MAPKAP-K2. The p38 MAPKα protein (80 ng/mL, 2.5 μL) is mixed with the test compound (2.5 μL of either 4 μg/mL, 0.4 μg/mL, 0.04 μg/mL or 0.004 μg/mL) for 2 hr at RT. […] The mixture is incubated for 1 hr at RT. Development reagent (protease, 5 μL) is added for 1 hr prior to detection in a fluorescence microplate reader (Vanoskan® Flash, ThermoFisher Scientific).
as §3

In another assay the target is Syk (Homo sapiens (Human), UniProt P43405). The assay can be described thus: Syk enzyme inhibition (FRET, Z-LYTE). The assay is classed as biochemical. How it is done:
as §1, §2, §3

Assay [1] relates to β-catenin in d-U937 cells. The assay can be described thus: Accumulation of β catenin in d-U937 cells (assay m). In kind it is cell-based, human. How it is done:
U937 cells, a human monocytic cell line, are differentiated into macrophage-type cells by incubation with PMA (100 ng/mL) for between 48 to 72 hr. The cells are then incubated with either final concentrations of test compound or vehicle for 18 hr. The induction of β-catenin by the test compounds is stopped by replacing the media with 4% formaldehyde solution. Endogenous […] is neutralised by incubating with quenching buffer (100 μL, 0.1% sodium azide, 1% H2O2 in PBS with 0.05% Tween-20) for 20 min. The cells are washed with washing buffer (200 μL; PBS containing 0.05% Tween-20) and incubated with blocking solution (200 μL; 5% milk in PBS) for 1 hr, re-washed with washing buffer (200 μL) and then incubated overnight with anti-β-catenin antibody solution (50 μL) in 1% BSA/PBS (BD, Oxford, UK).
After washing with washing buffer (3×200 μL; PBS containing 0.05% Tween-20), cells are incubated with a HRP-conjugated secondary antibody solution (100 μL) in 1% BSA/PBS (Dako, Cambridge, UK) and the resultant signal is determined colourimetrically (OD: 450 nm with a reference wavelength of 655 nm) using TMB substrate (50 μL; R&D Systems, Abingdon, UK). This reaction is stopped by addition of 1N H2SO4 solution (50 μL). Cells are then washed with washing buffer and 2% crystal violet solution (50 μL) is applied for 30 min. After washing with washing buffer (3×200 μL), 1% SDS (100 μL) is added to each well and the plates are shaken lightly for 1 hr prior to measuring the absorbance at 595 nm (Varioskan® Flash, Thermo-Fisher Scientific).
The measured OD450-655 readings are corrected for cell number by dividing the OD450-655 by the OD595 readings.

Chain of GSK 3α (P49840 whole entry): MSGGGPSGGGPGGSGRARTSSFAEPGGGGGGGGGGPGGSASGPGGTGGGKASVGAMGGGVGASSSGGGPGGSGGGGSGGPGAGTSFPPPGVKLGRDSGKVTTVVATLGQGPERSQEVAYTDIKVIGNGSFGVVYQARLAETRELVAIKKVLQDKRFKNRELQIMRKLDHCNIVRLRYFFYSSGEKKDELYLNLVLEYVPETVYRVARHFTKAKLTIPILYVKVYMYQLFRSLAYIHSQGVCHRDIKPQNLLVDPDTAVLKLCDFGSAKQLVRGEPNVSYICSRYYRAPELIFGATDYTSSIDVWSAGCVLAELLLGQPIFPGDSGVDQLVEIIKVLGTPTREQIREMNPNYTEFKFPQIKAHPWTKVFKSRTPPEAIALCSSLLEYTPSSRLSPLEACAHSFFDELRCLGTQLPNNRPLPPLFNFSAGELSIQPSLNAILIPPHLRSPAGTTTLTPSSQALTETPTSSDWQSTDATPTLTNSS
Chain of p38 MAPKα (MAPK14) (Q16539 whole entry, canonical isoform): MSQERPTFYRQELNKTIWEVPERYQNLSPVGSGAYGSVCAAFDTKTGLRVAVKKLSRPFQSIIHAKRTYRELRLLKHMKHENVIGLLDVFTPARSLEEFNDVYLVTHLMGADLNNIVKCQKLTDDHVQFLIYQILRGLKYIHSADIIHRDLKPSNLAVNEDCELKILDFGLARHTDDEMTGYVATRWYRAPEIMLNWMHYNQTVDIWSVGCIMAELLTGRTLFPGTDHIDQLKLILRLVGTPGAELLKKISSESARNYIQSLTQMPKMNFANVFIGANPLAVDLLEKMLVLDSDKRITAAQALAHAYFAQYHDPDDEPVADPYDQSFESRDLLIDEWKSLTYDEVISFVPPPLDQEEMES
Chain of c-Src (P12931 whole entry, looked up): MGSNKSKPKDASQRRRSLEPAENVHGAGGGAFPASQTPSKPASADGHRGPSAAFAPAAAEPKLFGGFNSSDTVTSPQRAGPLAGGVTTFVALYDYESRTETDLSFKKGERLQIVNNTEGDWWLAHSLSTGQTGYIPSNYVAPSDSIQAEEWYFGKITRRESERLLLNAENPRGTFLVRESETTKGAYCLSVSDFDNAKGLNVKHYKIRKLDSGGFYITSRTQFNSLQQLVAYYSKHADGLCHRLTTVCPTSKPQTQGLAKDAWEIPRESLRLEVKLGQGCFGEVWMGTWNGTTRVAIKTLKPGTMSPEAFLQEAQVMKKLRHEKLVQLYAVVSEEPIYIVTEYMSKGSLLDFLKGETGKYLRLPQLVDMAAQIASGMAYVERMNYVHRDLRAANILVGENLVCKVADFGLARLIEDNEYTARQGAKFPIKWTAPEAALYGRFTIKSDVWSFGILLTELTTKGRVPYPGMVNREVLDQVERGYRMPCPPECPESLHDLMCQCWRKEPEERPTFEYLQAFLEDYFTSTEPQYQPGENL

Regarding `C#Cc1cc(Nc2nccc(Oc3ccc(NC(=O)Nc4cc(C(C)(C)C)cc(NS(C)(=O)=O)c4OC)c4ccccc34)n2)cc(C(=O)N[C@H](C)CN2CCOCC2)c1` [Example 56, (R)-3-((4-((4-(3-(5-(tert-Butyl)-2-methoxy-3-(methysulfonamido)phenyl)ureido)-naphthalen-1-yl)oxy)pyrimidin-2-yl)amino)-5-ethynyl-N-(1-morpholinopropan-2-yl)-benzamide], the IC50 on GSK 3α worked out at 763 nM; against c-Src, 45 nM; on p38 MAPKα (MAPK14), 335 nM; against Syk it was 631 nM. Moreover, the “% β-catenin induction” value is given as 3% in assay [1] (test compound 1 μg/mL), 13% in assay [1] (test compound 5 μg/mL) and 14% in assay [1] (test compound 10 μg/mL).

`COCCOCCOCCOc1cc(Nc2nccc(Oc3ccc(NC(=O)Nc4cc(C(C)(C)C)cc(C(=O)NC5COC5)c4OC)c4ccccc34)n2)cc(OC)c1` [Example 51, 5-(tert-Butyl)-2-methoxy-3-(3-(4-((2-((3-methoxy-5-(2-(2-(2-methoxyethoxy)ethoxy)-ethoxy)phenyl)amino)pyrimidin-4-yl)oxy)naphthalen-1-yl)ureido)-N-(oxetan-3-yl)-benzamide]: the IC50 worked out at 977 nM on GSK 3α, 15 nM against c-Src, 170 nM against p38 MAPKα (MAPK14) and 49 nM at Syk. For the same compound, the figures for the “% β-catenin induction” value in assay [1] (test compound 1 μg/mL), in assay [1] (test compound 5 μg/mL) and in assay [1] (test compound 10 μg/mL) were 3%, 33% and 29%, respectively.

Take `C#Cc1cc(Nc2cc(Oc3ccc(NC(=O)Nc4cc(C(C)(C)C)cc(NS(C)(=O)=O)c4OC)c4ccccc34)ccn2)cc(C(=O)NCCN2CCOCC2)c1` [Example 49, 3-((4-((4-(3-(5-(tert-Butyl)-2-methoxy-3-methylsulfonamido)phenyl)ureido)naphthalen-1-yl)oxy)pyridin-2-yl)amino-5-ethynyl-N-(2-morpholinoethyl)benzamide]: the IC50 on GSK 3α came to 8360 nM; on c-Src, 56 nM; on p38 MAPKα (MAPK14), 258 nM; against Syk, 1220 nM. The results for the “% β-catenin induction” value in assay [1] (test compound 1 μg/mL), in assay [1] (test compound 5 μg/mL) and in assay [1] (test compound 10 μg/mL) were −1%, −2% and −5%, respectively.

For `CNC(=O)c1cc(C(C)(C)C)cc(NC(=O)Nc2ccc(Oc3ccnc(Nc4cc(CO)cc(OC)c4)c3)c3ccccc23)c1OC` [84(h), 5-tert-Butyl-3-[[4-[[2-[3-(hydroxymethyl)-5-methoxyanilino]-4-pyridyl]oxy]-1-naphthyl]carbamoylamino]-2-methoxy-N-methyl-benzamide], the IC50 at GSK 3α turned out to be 1650 nM; at c-Src it was 21 nM; against p38 MAPKα (MAPK14) it was 79 nM; against Syk, 130 nM. Further, the figures for the “% β-catenin induction” value in assay [1] (test compound 1 μg/mL), in assay [1] (test compound 5 μg/mL) and in assay [1] (test compound 10 μg/mL) were −1%, 11% and 10%, respectively.

For the compound `C#Cc1cc(Nc2cc(Oc3ccc(NC(=O)Nc4cc(C(C)(C)C)cc(NS(C)(=O)=O)c4OC)c4ccccc34)ccn2)cc(C(=O)NCCOCCOCCOC)c1` [Example 54], the IC50 at GSK 3α came to 11900 nM; at c-Src, 42 nM; on p38 MAPKα (MAPK14), 140 nM; against Syk, 1190 nM. In addition, the “% β-catenin induction” value is recorded as 5% in assay [1] (test compound 1 μg/mL), 5% in assay [1] (test compound 5 μg/mL) and −2% in assay [1] (test compound 10 μg/mL).

With `COc1cc(Nc2nccc(Oc3ccc(NC(=O)Nc4cc(C(C)(C)C)cc(NS(C)(=O)=O)c4OC)c4ccccc34)n2)cc(OCCOCCOCCN2CCOCC2)c1` [Example 18, N-(5-(tert-Butyl)-2-methoxy-3-(3-(4-((2-((3-methoxy-5-(2-(2-(2-mormholinoethoxy)ethoxy)-ethoxy)phenyl)amino)pyrimidin-4-yl)oxy)naphthalen-1-yl)ureido)phenyl)methanesulfonamide], the IC50 on GSK 3α stood at 3120 nM; at c-Src, 10 nM; on p38 MAPKα (MAPK14), 52 nM; against Syk, 76 nM. For the same compound, the “% β-catenin induction” value worked out at 1% in assay [1] (test compound 1 μg/mL), 9% in assay [1] (test compound 5 μg/mL) and 17% in assay [1] (test compound 10 μg/mL).

`C#Cc1cc(Nc2nccc(Oc3ccc(NC(=O)Nc4cc(C(C)(C)C)cc(NS(C)(=O)=O)c4OC)c4ccccc34)n2)cc(C(=O)NCCN2CCOCC2)c1` [Example 1, 3-((4-((4-(3-(5-(tert-Butv)-2-methoxy-3-(methysulfonamido)phenyl)ureido)naphthalen-1-yl)oxy)pyrimidin-2-yl)amino)-5-ethynyl-N-(2-morpholinoethyl)benzamide]: the IC50 was 657 nM at GSK 3α, 12 nM at c-Src, 118 nM against p38 MAPKα (MAPK14) and 51 nM at Syk. Also, the “% β-catenin induction” value in assay [1] (test compound 1 μg/mL) is given as 18%; in assay [1] (test compound 5 μg/mL), 17%.

For `COCCOCCOc1cc(Nc2nccc(Oc3ccc(NC(=O)Nc4cc(C(C)(C)C)cc(NS(C)(=O)=O)c4OC)c4ccccc34)n2)cc(OC)c1` [Example 36, N-(5-(tert-Butyl)-2-methoxy-3-(3-(4-((2-((3-methoxy-5-(2-(2-methoxyethoxy)ethoxy)-phenyl)amino)pyrimidin-4-yl)oxy)naphthalen-1-yl)ureido)phenyl)methanesulfonamide], the IC50 is 2090 nM on GSK 3α, 16 nM on c-Src, 69 nM at p38 MAPKα (MAPK14) and 67 nM on Syk. Further, the “% β-catenin induction” value in assay [1] (test compound 1 μg/mL) was −4%; in assay [1] (test compound 5 μg/mL), 28%; in assay [1] (test compound 10 μg/mL) it was 18%.

In the case of `COCCOCCOCCNC(=O)c1cc(Nc2nccc(Oc3ccc(NC(=O)Nc4cc(C(C)(C)C)cc(NS(C)(=O)=O)c4OC)c4ccccc34)n2)cc(OC)c1` [Example 7], the IC50 on GSK 3α was 516 nM; against c-Src it was 9 nM; at p38 MAPKα (MAPK14), 39 nM; at Syk, 554 nM. Further, the results for the “% β-catenin induction” value in assay [1] (test compound 1 μg/mL), in assay [1] (test compound 5 μg/mL) and in assay [1] (test compound 10 μg/mL) were 13%, 29% and 29%, respectively.

`C#Cc1cc(Nc2cc(Oc3ccc(NC(=O)Nc4cc(C(C)(C)C)cc(NS(C)(=O)=O)c4OC)c4ccccc34)ccn2)cc(C(=O)NCCOCCOC)c1` [Example 52]: the IC50 at GSK 3α was 12600 nM; against c-Src, 100 nM; on p38 MAPKα (MAPK14), 277 nM; on Syk it was 1260 nM. Also, the entries for the “% β-catenin induction” value in assay [1] (test compound 1 μg/mL), in assay [1] (test compound 5 μg/mL) and in assay [1] (test compound 10 μg/mL) were 2%, 9% and 1%, respectively.

With `COc1cc(CO)cc(Nc2cc(Oc3ccc(NC(=O)Nc4cc(C(C)(C)C)cc(C(N)=O)c4OC)c4ccccc34)ccn2)c1` [84(g), 5-tert-Butyl-3-[[4-[[2-[3-(hydroxymethyl)-5-methoxyanilino]-4-pyridyl]oxy]-1-naphthyl]carbamoylamino]-2-methoxybenzamide], the IC50 on GSK 3α came to 2280 nM; on c-Src, 28 nM; on p38 MAPKα (MAPK14) it was 86 nM; on Syk, 137 nM. For the same compound, the “% β-catenin induction” value in assay [1] (test compound 1 μg/mL) is reported as 1%; in assay [1] (test compound 5 μg/mL) it was 8%; in assay [1] (test compound 10 μg/mL) it was 7%.
